According to patent US10144726B2, “Modulators of the p70S6 kinase for use in the treatment of brain disorders and triple-negative breast cancer” (SENTINEL ONCOLOGY LIMITED, priority 2015, dated 2018):
pIC50: −log10 of the molar value. Counter-ions that a name gives are not always drawn. Like-named read-outs stand apart in the source and are kept apart here.

Assays:
[1] = test system: MCF-7 cells; test: MCF-7 proliferation assay (Alamar blue, 72 h); assay type: cell-based; conditions: Homo sapiens, MCF7, 72 h; read-out: (c) MCF-7 proliferation IC50
Description: The following assay was used to determine the ability of test compounds to inhibit cell growth.
The following protocol was used: • 1) MCF-7 cells were seeded in 96-well plates at 5000 cells per well and allowed to adhere overnight prior to addition of compound or vehicle control. • 2) Test compounds were prepared from 10 mM DMSO stocks to give a final concentration range of 100 μM, 30 μM, 10 μM, 3 μM, 1 μM, 0.3 μM, 0.1 μM, 0.03 μM, 0.01 μM and vehicle control. The DMSO content was constant at 1%. • 3) Test compounds were incubated with the cells for 72 h at 37° C. 5% CO2 in a humidified atmosphere. • 4) Alamar blue 10% (v/v) was then added and incubated for a further 6 h, and fluorescent product detected using the BMG FLUOstar plate reader. • 5) Data were analysed using a 4-parameter logistic equation in GraphPad Prism.

[2] = biological target: p70S6K (h) (Homo sapiens, UniProt P23443); test: Determination of p70S6 inhibitory activity (radiometric kinase assay); assay type: biochemical; conditions: read-out: (a) p70S6K1 IC50
Description: The ability of compounds of the invention to inhibit P70S6 kinase was determined using the protocol below.
20 mM MOPS, 1 mM EDTA, 0.01% Brij-35, 5% Glycerol, 0.1% b-mercaptoethanol, 1 mg/mL BSA
In a final reaction volume of 25 μL, p70S6K (h) (5-10 mU) is incubated with 8 mM MOPS pH 7.0, 0.2 mM EDTA, 100 μM KKRNRTLTV, 10 mM Mg acetate and [γ-33P-ATP] (specific activity approx. 500 cpm/pmol, concentration as required). The reaction is initiated by the addition of the MgATP mix. After incubation for 40 minutes at room temperature, the reaction is stopped by the addition of 5 μL of a 3% phosphoric acid solution. 10 μL of the reaction mixture is then spotted onto a P30 filtermat and washed three times for 5 minutes in 75 mM phosphoric acid and once in methanol prior to drying and scintillation counting.

[3] = test system: phosphorylation of S6 Ser235/236 in MCF-7 cells; test: MCF-7 pS6 ELISA (phosphorylation of S6 Ser235/236); assay type: cell-based; conditions: Homo sapiens, MCF7; for pIC50: S6 Ser235/236, 1% FBS, 2 h, read-out: (b) MCF-7 pS6 ELISA IC50
Description: The following assay provides IC50 values for inhibition of P70S6K activity in a whole cell assay by determining effects on the phosphorylation of S6^Ser235/236 in MCF-7 cells by ELISA.
The following protocol was used: • 1) MCF-7 cells were seeded in 96-well plates at a density of 7000 cells per well and allowed to adhere for 6 h in media containing 10% FBS. • 2) The full serum media was replaced and cells incubated overnight in media containing 1% FBS, prior to addition of test compounds. • 3) Test compounds were prepared from 10 mM DMSO stocks to give final concentration ranges as indicated on graphs. DMSO was constant at a final concentration of 1%. • 4) Test compounds were incubated with cells in duplicate for 2 h at 37° C/5% CO2 in a humidified atmosphere. • 5) The media was removed and cells were lysed by freeze-thawing in cell lysis buffer. • 6) Detection of phosphorylated S6Ser235/236 was then carried out using a PathScan ELISA kit (Cell Signaling Technology #7205). • 7) Lysates were diluted 1:1 with sample diluent before being applied to wells coated with an antibody against phosphorylated-S6 protein. • 8) The ELISA was then performed as stated in the manufacturers' instructions. • 9) The raw data were normalised to control values and analysed using a 4-parameter logistic equation in GraphPad Prism.

[4] = Brain and plasma concentrations in an in vivo cassette mouse model; design: species or system male CD-1 mice; conditions: male, PO cassette, 2.5 mg/kg per compound; for Kp at 3 h: read-out: (d) Brain: Plasma ratio at 3 hours
Description: The compounds of this invention were evaluated in an in vivo cassette mouse model to determine brain and plasma concentrations following oral dosing. This is an industry-standard and recognised means to assess brain penetration of small molecules (for recent literature article, refer to In vitro permeability analysis, pharmacokinetic and brain distribution study in mice of imperatorin, isoimperatorin and cnidilin in Radix Angelicae Dahuricae, Fitoterapia, Volume 85, March 2013 , Pages 144-153). It is also recognised that higher brain concentrations (and higher ratios of brain: plasma concentration) lead to greater exposure in the brain—this is clearly advantageous if the brain is the site of action.
For a single cassette study, male CD-1 mice were used (n=3 per timepoint, two timepoints: 1.0 hr and 3.0 hr).
5 compounds were dosed PO per cassette (dose level 2.5 mg/kg per compound, dose conc. 0.25 mg/ml, dose volume 10.0 ml/kg).
Formulation used to solubilize compounds: 10% DMSO/90% hydroxypropyl-β-cyclodextrin (20% w/v aqueous)
Sampling was terminal and plasma and brain matrices were generated. To prepare plasma samples, protein was precipitated using acetonitrile. To prepare brain samples, homogenisation and protein precipitation was performed with acetonitrile. Samples were analysed using HPLC-TOF MS using electrospray ionisation.

[5] = test system: phosphorylation of S6 at Serine residues 240 and 244 in MCF7 cells; test: MCF7 pS6 ELISA variant (pS240/244, 0% FBS); assay type: cell-based; conditions: Homo sapiens, S6 Serine 240 and 244 detected, read-out: (b) MCF-7 pS6 ELISA IC50 (pS240/244 variant)
[6] = CD-1, brain, read-out: (d) Brain conc. at 3 hours
[7] = CD-1, plasma, read-out: (d) Plasma conc. at 3 hours

p70S6K (h), sequence (P23443 whole entry): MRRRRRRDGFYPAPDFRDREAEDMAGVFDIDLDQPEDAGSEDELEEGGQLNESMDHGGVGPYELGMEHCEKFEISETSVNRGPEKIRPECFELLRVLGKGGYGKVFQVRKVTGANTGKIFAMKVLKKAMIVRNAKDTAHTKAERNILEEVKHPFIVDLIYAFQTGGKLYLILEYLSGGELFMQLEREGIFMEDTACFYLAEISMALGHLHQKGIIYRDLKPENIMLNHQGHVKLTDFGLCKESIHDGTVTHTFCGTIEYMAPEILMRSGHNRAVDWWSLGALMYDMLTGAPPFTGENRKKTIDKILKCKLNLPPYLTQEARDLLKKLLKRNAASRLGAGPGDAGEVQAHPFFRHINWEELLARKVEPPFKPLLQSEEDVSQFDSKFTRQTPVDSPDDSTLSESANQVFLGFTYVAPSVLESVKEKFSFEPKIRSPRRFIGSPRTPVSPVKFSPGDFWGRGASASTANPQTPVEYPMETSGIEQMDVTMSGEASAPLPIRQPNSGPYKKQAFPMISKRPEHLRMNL

SMILES	pIC50 [1]	pIC50 [2]	pIC50 [3]	concentration at 3 h [4, 6]	Kp at 3 h ([4]; CD-1, brain)	concentration at 3 h [4, 7]	inhibition at 0.3 µM ([3]; at 0.3 uM, read-out: (b) MCF-7 pS6 ELISA inhibition)	pIC50 [5]
CN(Cc1ccccc1)c1cnc2cc(-c3cn[nH]c3)ccc2n1 [Example 1]	4.91	8.40	5.52	3650 nM	3.8	970 nM		
Clc1cccc(CNc2cnc3cc(-c4cn[nH]c4)ccc3n2)c1 [Example 2]	4.82	7.60	6.40	1500 nM	1.2	1230 nM		
Fc1ccc(CNc2cnc3cc(-c4cn[nH]c4)ccc3n2)cc1 [Example 3]	5.28	7.59	5.49	590 nM	1.1	520 nM		
COc1cccc(CNc2cnc3cc(-c4cn[nH]c4)ccc3n2)c1 [Example 4]	5.64	7.52	6.40	1080 nM	0.6	1730 nM		
CN(Cc1ccc(F)cc1)c1cnc2cc(-c3cn[nH]c3)ccc2n1 [Example 5]	4.48	7.92	5.49	2480 nM	3.3	760 nM		
CCN(Cc1ccccc1)c1cnc2cc(-c3cn[nH]c3)ccc2n1 [Example 6]	4.55	7.48		2380 nM	4.3	550 nM		
CN(Cc1cccc(F)c1)c1cnc2cc(-c3cn[nH]c3)ccc2n1 [Example 7]	5.15	8.05	6.05	2880 nM	3.5	830 nM		
Fc1ccc(CNc2cnc3cc(-c4cn[nH]c4)ccc3n2)cc1F [Example 8]	4.62	7.59	5.85	820 nM	1.1	760 nM		
C[C@@H](Nc1cnc2cc(-c3cn[nH]c3)ccc2n1)c1ccccc1 [Example 9]	4.82	8.52	6.52	2070 nM	1.4	1510 nM		
CN(Cc1ccccc1)c1nc2ccc(-c3cn[nH]c3)cc2[n+]([O-])n1 [Example 10]		7.21		750 nM	4.2	180 nM		
CN(Cc1ccccc1)c1nnc2cc(-c3cn[nH]c3)ccc2n1 [Example 11]		7.19		2620 nM	7.5	350 nM		
COc1cccc([C@@H](C)Nc2cnc3cc(-c4cn[nH]c4)ccc3n2)c1 [Example 12]	5.08	8.15	6.10	2400 nM	0.5	5050 nM		
C[C@H](c1ccccc1)N(C)c1cnc2cc(-c3cn[nH]c3)ccc2n1 [Example 13]		8.30	5.92	2960 nM	4.2	700 nM		
COc1cccc([C@@H](C)N(C)c2cnc3cc(-c4cn[nH]c4)ccc3n2)c1 [Example 14]	5.05	8.05	6.05	2650 nM	3.3	790 nM		
Cc1cccc([C@@H](C)Nc2cnc3cc(-c4cn[nH]c4)ccc3n2)c1 [Example 16]	5.38	7.74		3250 nM	1	3340 nM	57%	
[O-][n+]1nc(NCc2ccccc2)nc2ccc(-c3cn[nH]c3)cc21 [Example 17]		7.49		210 nM	1.3	160 nM		
C[C@@H](Nc1nc2ccc(-c3cn[nH]c3)cc2[n+]([O-])n1)c1ccccc1 [Example 18, 1-oxido-N-[(1R)-1-phenylethyl]-7-(1H-pyrazol-4-yl)-1,2,4-benzotriazin-1-ium-3-amine hydrochloride]		7.92		990 nM	1.8	560 nM		5.30
C[C@@H](Nc1nnc2cc(-c3cn[nH]c3)ccc2n1)c1ccccc1 [Example 19, N-[(1 R)-1-phenylethyl]-7-(1H-pyrazol-4-yl)-1,2,4-benzotriazin-3-amine hydrochloride]		7.66		2330 nM	2.9	810 nM		5.34
